Data from paper PMC7529893, “Structural basis for substrate recognition and chemical inhibition of oncogenic MAGE ubiquitin ligases” (Nature Communications, 2020).
≈ marks a conversion by molar mass, not a printed value.

Legend:
[1] = molecular target: T1, MAGE-A11:PCF11 interaction (GST-MAGE-A11 MHD and FAM-PCF11_4) (Homo sapiens, UniProt P43364); assay: TR-FRET dose response test of compounds for disruption of MAGE-A11:PCF11 binding; conditions: Supplementary Data 4; read-out: TR-FRET, IC50
T1 construct: GST-MAGE-A11 MHD (human MAGE-A11 MHD amino acid 218-429); made in house; host or cells: E. coli BL21(DE3)
T1 sequence (P43364 218-429): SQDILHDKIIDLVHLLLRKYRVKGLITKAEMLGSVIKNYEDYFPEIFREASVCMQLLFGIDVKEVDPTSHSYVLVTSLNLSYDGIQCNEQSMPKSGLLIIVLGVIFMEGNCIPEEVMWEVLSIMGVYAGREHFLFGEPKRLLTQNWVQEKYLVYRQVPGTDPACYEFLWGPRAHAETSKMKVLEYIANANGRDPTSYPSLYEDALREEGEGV
Procedure, shortened: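 Competition of compounds against binding of FAM-PCF11_4 peptide to GST-MAGE-A11 MHD, detected with Tb-anti-GST, in 50 mM Tris pH 7.5, 20 mM MgCl2, 0.1 mg/ml BSA, 1 mM DTT. 90 min at ~25 °C; 520/490 nm emission ratio (340 nm excitation) fitted for IC50.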

[2] = Solubility assay (μSOL Evolution); assay type: physicochemical; conditions: 18 h at RT; for solubility at 18 h: citrate phosphate-buffered saline (isotonic) with 1% DMSO
Procedure: Solubility assays were carried out on a Biomek FX lab automation workstation (Beckman Coulter, Inc., Fullerton, CA) using μSOL Evolution software (pION Inc., Woburn, MA). The detailed method is described as follows. 10 µl of 10 mM compound stock (in DMSO) was added to 190 μl 1-propanol to make a reference stock plate. In total, 5 µl from this reference stock plate were mixed with 70 µl 1-propanol and 75 µl citrate phosphate-buffered saline (PBS; isotonic) to make the reference plate, and the UV spectrum (250–500 nm) of the reference plate was read. In total, 6 µl of 10 mM test compound stock was added to 594 µl buffer in a 96-well storage plate and mixed. The storage plate was sealed and incubated at RT for 18 h. The suspension was then filtered through a 96-well filter plate (pION Inc., Woburn, MA). In all, 75 µl of filtrate was mixed with 75 µl 1-propanol to make the sample plate, and the UV spectrum of the sample plate was read. Calculations were carried out with μSOL Evolution software based on the area under the curve (AUC) of the UV spectrum of the sample and reference plates. All compounds were tested in triplicate.

[3] = High throughput Caco-2 permeability; assay type: in vitro ADME; conditions: human, Caco-2, pH 7.4, 10 µmol/l, 2 h; for Papp A→B at 2 h, 10 µmol/l: apical to basolateral; for Papp B→A at 2 h, 10 µmol/l: basolateral to apical
Procedure: (§1) High throughput Caco-2 permeability was performed in the TranswellR 0.4 µm polycarbonate membrane 96-well system with modified methods. Caco-2 cells were maintained at 37 °C in a humidified incubator with an atmosphere of 5% CO2. The cells were cultured in 75 cm^2 flasks with Dulbecco’s Modified Eagle’s Medium (DMEM) containing 10% (v/v) FBS, 1% (v/v) non-essential amino acids (NEAA), 100 units/ml of penicillin, and 100 µg/ml of streptomycin. The Caco-2 cells were seeded onto inserts at a density of 2 × 10^4 cells/insert separately. The medium in the wells was exchanged each other day, and the trans epithelial electrical resistance (TEER) value was measured using an epithelial voltohm meter (Millipore, Billerica, Massachusetts). […] For transport experiments, each cultured monolayer on the 96-well plate was washed twice with a transport buffer (HBSS containing 25 mM HEPES, pH 7.4). The permeability assay was initiated by the addition of each compound solution (10 µmol/l) into inserts (apical side, A) or receivers (basolateral side, B). The Caco-2 cell monolayers were incubated for 2 h at 37 °C. Fractions were collected from receivers (if apical to basal permeability) or inserts (if basal to apical permeability), and concentrations were assessed by UPLC/MS (Waters; Milford, MA). All compounds were tested in triplicates. The A → B (or B → A) apparent permeability coefficients (Papp) of each compound were calculated using the equation, Papp = dQ/dt × 1/AC0, where dQ/dt equals the flux of a drug across the monolayer, A equals the total insert well surface area, and C0 is the initial concentration of substrate in the donor compartment. The efflux ratio was determined by dividing the Papp in the B-A direction by the Papp in the A-B direction.

[4] = system: Caco-2 cells; assay: High throughput Caco-2 permeability; assay type: in vitro ADME; conditions: 10 µmol/l, 2 h; for Papp A→B: apical to basolateral; for Papp B→A: basolateral to apical
Procedure: as §1

IC50 [1] [µM]	Solubility [2] [µM]	Papp A→B [4] [nm/s]	Papp B→A [4] [nm/s]	Compound	solubility at 18 h [2] [µM]	Papp A→B at 2 h, 10 µmol/l [3] [nm/s]	Papp B→A at 2 h, 10 µmol/l [3] [nm/s]
0.13	0.67 (≈ 0.31 µg/mL)	3.68	15.4	CC(C)(C)c1ccc(-c2ccc3c(NCCCNCc4ccc5[nH]ccc5c4)ccnc3c2)cc1 [SJ001008068-01]	–	–	–
0.2	0.12 (≈ 0.0651 µg/mL)	4.98	2.29	FC(F)(F)c1cc(-c2ccc3c(NCCCNCc4ccc5[nH]ccc5c4)ccnc3c2)cc(C(F)(F)F)c1 [SJ001008069-01]	–	–	–
0.24	59.80 (≈ 21.8 µg/mL)	196	213	Clc1ccc2c(NCCCNCc3ccc4[nH]ccc4c3)ccnc2c1 [SJ000520909-03]	–	–	–
0.62	57.14 (≈ 23.4 µg/mL)	183	193	Brc1ccc2c(NCCCNCc3ccc4[nH]ccc4c3)ccnc2c1 [SJ001008065-01]	–	–	–

Continued, molecule first:

Compound	IC50 [1] [µM]	Solubility [2] [µM]	Papp A→B [4] [nm/s]	Papp B→A [4] [nm/s]	solubility at 18 h [2] [µM]	Papp A→B at 2 h, 10 µmol/l [3] [nm/s]	Papp B→A at 2 h, 10 µmol/l [3] [nm/s]
FC(F)(F)c1cc(-c2ccc3c(NCCCNCc4ccco4)ccnc3c2)cc(C(F)(F)F)c1 [SJ000311270-01, FC(F)(F)c1cc(cc(c1)C(F)(F)F)c2ccc3c(NCCCNCc4occc4)ccnc3c2]	0.58	–	–	–	61.1 (≈ 30.1 µg/mL)	3.26	0.79
FC(F)(F)c1ccc2c(NCCCNCc3ccc4c(c3)OCO4)ccnc2c1 [SJ000361106-02]	–	128.74 (≈ 51.9 µg/mL)	470	400	–	–	–
CC(C)(C)c1ccc(-c2ccc3c(NCCCNCc4ccco4)ccnc3c2)cc1 [SJ000311286-01, CC(C)(C)c1ccc(cc1)c2ccc3c(NCCCNCc4occc4)ccnc3c2]	1.16	–	–	–	56.2 (≈ 23.2 µg/mL)	5.78	1.2
FC(F)(F)c1ccc2c(NCCCNCc3ccco3)ccnc2c1 [SJ000361113-02]	> 70	119.10 (≈ 41.6 µg/mL)	502	401	–	–	–
C=CC(=O)N(CCCNc1ccnc2ccccc12)Cc1ccc2[nH]ccc2c1 [SJ001009807-01]	3.5	34.77 (≈ 13.4 µg/mL)	27.3	189	–	–	–
